Experiment [1] in a line: Cytotoxicity against human QSG7701 cells after 48 hrs by MTT assay. The class given is cell-based. The note with it: QSG7701, 48 h.
Experiment [2] concerns HCT-116. In words: Cell cycle arrest in human HCT116 cells assessed as accumulation at G1 phase after 48 hrs using propidium iodide by flow cytometry. It is filed as functional, cell-based.
Experiment [3] relates to HCT-116. In words: Induction of apoptosis in human HCT116 cells assessed as increase in late apoptotic cells after 48 hrs using annexin V/propidium iodide staining by flow cytometry. It is filed as functional, cell-based. For orientation: A flow cytometer gives signals particle by particle.
Experiment [4] concerns HCT-116. In words: Cell cycle arrest in human HCT116 cells assessed as accumulation at G2 phase at 0.5 uM after 48 hrs using propidium iodide by flow cytometry (reference value: 16.77%). It is filed as functional.
In experiment [5] the test system is HCT-116. In words: Cell cycle arrest in human HCT116 cells assessed as accumulation at S phase at 0.5 uM after 48 hrs using propidium iodide by flow cytometry (reference value: 46.43%). It is filed as functional.
Experiment [6] relates to HCT-116. Put plainly: Cell cycle arrest in human HCT116 cells assessed as accumulation at G1 phase at 2 uM after 48 hrs using propidium iodide by flow cytometry (reference value: 36.8%). It is filed as functional.
Experiment [7] deals with HCT-116. Put plainly: Cell cycle arrest in human HCT116 cells assessed as accumulation at G2 phase at 2 uM after 48 hrs using propidium iodide by flow cytometry (reference value: 16.77%). It is filed as functional.
Experiment [8] concerns HCT-116. Put plainly: Cell cycle arrest in human HCT116 cells assessed as accumulation at S phase at 2 uM after 48 hrs using propidium iodide by flow cytometry (reference value: 46.43%). It is filed as functional.
In experiment [9] the test system is HCT-116. Put plainly: Cell cycle arrest in human HCT116 cells assessed as accumulation at G1 phase at 8 uM after 48 hrs using propidium iodide by flow cytometry (reference value: 36.8%). The class given is functional.
Experiment [10] deals with HCT-116. In words: Cell cycle arrest in human HCT116 cells assessed as accumulation at G2 phase at 8 uM after 48 hrs using propidium iodide by flow cytometry (reference value: 16.77%). It is filed as functional.
For experiment [11], the system named is HCT-116. Put plainly: Cell cycle arrest in human HCT116 cells assessed as accumulation at S phase at 8 uM after 48 hrs using propidium iodide by flow cytometry (reference value: 46.43%). The class given is functional.
In experiment [12] the test system is HCT-116. In words: Induction of apoptosis in human HCT116 cells at 0.5 uM after 48 hrs using annexin V/propidium iodide staining by flow cytometry (reference value: 4.17%). The class given is functional.
Experiment [13] deals with HCT-116. Put plainly: Induction of apoptosis in human HCT116 cells at 2 uM after 48 hrs using annexin V/propidium iodide staining by flow cytometry (reference value: 4.17%). It is filed as functional.
The next experiment concerns PC-3. In words: Cytotoxicity against human PC3 cells after 48 hrs by MTT assay. It is filed as functional, cell-based. The note with it: PC-3, 48 h.
The subject of experiment [14] is HCT-116. In words: Induction of apoptosis in human HCT116 cells at 8 uM after 48 hrs using annexin V/propidium iodide staining by flow cytometry (reference value: 4.17%). The class given is functional.
The target in experiment [15] is T1, Vascular endothelial growth factor receptor 2 (Homo sapiens, UniProt P35968). In words: Inhibition of VEGF-induced VEGFR2 phosphorylation in human HCT116 cells at 0.2 to 20 uM treated 30 mins before VEGF challenge measured after 2 hrs by immuno blot analysis. The note with it: HCT-116. The class given is cell-based.
Experiment [16] deals with T1, Vascular endothelial growth factor receptor 2. Put plainly: Inhibition of human VEGFR2 preincubated for 10 mins before ATP addition measured after 45 mins.
Experiment [17] relates to HCT-116. Put plainly: Cell cycle arrest in human HCT116 cells assessed as accumulation at G1 phase at 0.5 uM after 48 hrs using propidium iodide by flow cytometry (reference value: 36.8%). It is filed as functional.
Experiment [18] has as its system HCT-116. Put plainly: cells. The note with it: Homo sapiens, HCT-116, 48 h.
Description: Cytotoxicity against human HCT116 cells after 48 hrs by MTT assay
For the next experiment, the system named is A549. In words: cells. The note with it: Homo sapiens, A549, 48 h.
For another experiment, the system named is HepG2. In words: cells. The note with it: Homo sapiens, HepG2, 48 h.
The next experiment concerns HL-60. In words: cells. The note with it: Homo sapiens, HL-60, 48 h.
For another experiment, the system named is K562. Put plainly: cells. The note with it: Homo sapiens, K562, 48 h.

Active and inactive are the calls of the source. The rule behind the calls is not given here.

T1 sequence (P35968 whole entry): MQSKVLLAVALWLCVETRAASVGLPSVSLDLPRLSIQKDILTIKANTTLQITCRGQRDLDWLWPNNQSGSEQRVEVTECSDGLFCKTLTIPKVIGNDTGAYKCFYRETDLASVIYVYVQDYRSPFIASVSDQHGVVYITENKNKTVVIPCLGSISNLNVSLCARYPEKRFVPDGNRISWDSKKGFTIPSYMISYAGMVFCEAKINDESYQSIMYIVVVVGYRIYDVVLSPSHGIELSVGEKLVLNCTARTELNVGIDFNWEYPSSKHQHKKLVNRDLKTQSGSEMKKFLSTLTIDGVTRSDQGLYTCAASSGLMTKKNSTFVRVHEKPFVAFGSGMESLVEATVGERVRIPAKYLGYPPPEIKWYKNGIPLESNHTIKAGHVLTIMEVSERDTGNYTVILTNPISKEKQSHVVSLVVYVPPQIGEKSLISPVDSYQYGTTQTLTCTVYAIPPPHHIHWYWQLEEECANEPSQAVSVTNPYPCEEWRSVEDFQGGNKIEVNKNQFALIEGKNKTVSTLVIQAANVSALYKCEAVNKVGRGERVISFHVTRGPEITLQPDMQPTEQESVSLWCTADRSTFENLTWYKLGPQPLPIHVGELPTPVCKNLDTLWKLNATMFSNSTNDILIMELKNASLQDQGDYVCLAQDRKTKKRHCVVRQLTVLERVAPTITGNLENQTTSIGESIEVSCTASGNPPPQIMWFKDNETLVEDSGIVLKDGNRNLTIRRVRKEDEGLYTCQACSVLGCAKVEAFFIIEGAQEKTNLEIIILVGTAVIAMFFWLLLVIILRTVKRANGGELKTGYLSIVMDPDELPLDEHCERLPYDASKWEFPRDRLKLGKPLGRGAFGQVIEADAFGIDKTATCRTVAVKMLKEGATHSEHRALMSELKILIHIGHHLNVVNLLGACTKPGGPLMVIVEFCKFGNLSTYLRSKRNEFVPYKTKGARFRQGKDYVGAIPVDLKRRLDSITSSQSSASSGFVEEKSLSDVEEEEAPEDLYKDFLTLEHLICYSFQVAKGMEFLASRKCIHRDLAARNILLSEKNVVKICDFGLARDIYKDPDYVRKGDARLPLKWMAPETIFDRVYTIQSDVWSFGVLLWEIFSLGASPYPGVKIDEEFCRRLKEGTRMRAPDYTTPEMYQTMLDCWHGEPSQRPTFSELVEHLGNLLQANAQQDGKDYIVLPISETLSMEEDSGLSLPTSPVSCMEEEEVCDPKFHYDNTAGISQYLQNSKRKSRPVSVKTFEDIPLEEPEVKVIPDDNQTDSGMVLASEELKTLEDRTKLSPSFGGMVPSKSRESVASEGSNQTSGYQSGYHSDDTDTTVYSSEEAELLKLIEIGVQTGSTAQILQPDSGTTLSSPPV
Description for A549: Cytotoxicity against human A549 cells after 48 hrs by MTT assay
Description for HL-60: Cytotoxicity against human HL60 cells after 48 hrs by MTT assay
Description for HepG2: Cytotoxicity against human HepG2 cells after 48 hrs by MTT assay
Description for K562: Cytotoxicity against human K562 cells after 48 hrs by MTT assay

Consider `CCN(CC)CCNC(=O)c1ccc(/C=C2\C(=O)Nc3ccc(F)cc32)[nH]c1=O.Cl`, for which the IC50 – broadly, the midpoint of a concentration-inhibition curve – in [1] is more than 50 µM; with PC-3, 21 µM; in [16] it was 0.015 µM; in the experiment on HCT-116 [18], 2.3 µM; with A549 it was 6.2 µM; in the experiment on HepG2, 5 µM. The results for the IC50 in the experiment with HL-60 and in the experiment on K562 were 22.7 µM and 13.8 µM, respectively. Moreover, the Activity entry in the experiment on HCT-116 [2] was “Dose-dependent effect”; in the experiment with HCT-116 [3], “Dose-dependent effect”; in the experiment with HCT-116 [4], 12.11%; in the experiment on HCT-116 [5], 42.45%; in the experiment with HCT-116 [6], 45.4%; in the experiment with HCT-116 [7], 8.61%. The Activity in the experiment on HCT-116 [8] is 38.76%; with HCT-116 [9] it was 81.63%; with HCT-116 [10] it was 0.1%; in the experiment on HCT-116 [11] it was 18.27%; in the experiment on HCT-116 [12], 20.48%; with HCT-116 [13] it was 28.63%. The Activity came out at 48.67% with HCT-116 [14] and 42.6% in the experiment on HCT-116 [17]. For the same compound, the inhibition entry in experiment [15] is “Active”.
